From patent US9295673B2, “Combination of mTOR inhibitors and P13-kinase inhibitors, and uses thereof” (Intellikine LLC, priority 2011, dated 2016)
Where two headings read alike, the source gives them in different places. Values belong to the compound of their own block, whether it stands above or below them.

Columns and labels:
[1] = test system: PC3; assay: PC3 proliferation (Alamar Blue); type: cell-based; settings: Homo sapiens, PC-3; for IC50: PC3 cells
[2] = target: T1, mTOR (Homo sapiens, UniProt P42345); assay: mTOR kinase inhibition assay (radiometric or LanthaScreen TR-FRET); type: biochemical
T1 construct: purchased Invitrogen

[3] = target: PI3K α (Homo sapiens, UniProt P42336); assay: PI 3-Kinase (human) HTRF assay, PI3K α
[4] = target: PI3K β (Homo sapiens, UniProt P42338); assay: PI 3-Kinase (human) HTRF assay, PI3K β
[5] = target: PI3K γ (Homo sapiens, UniProt P48736); assay: PI 3-Kinase (human) HTRF assay, PI3K γ
[6] = target: PI3K δ (Homo sapiens, UniProt O00329); assay: PI 3-Kinase (human) HTRF assay, PI3K δ
[7] = test system: NRDG1 phosphorylation; assay: Western blot of NRDG1 phosphorylation; type: cell-based; settings: western blot (FIG. 5B)
[8] = test system: mTORC1 and mTORC2 in 786-O cells; assay: Western blot of pNDRG1 in 786-O cells (mTOR pathways); type: cell-based, human; settings: FIG. 5
[9] = test system: pAKT(S473), pAKT(T308) in PC3 cells; assay: Western blot of Akt phosphorylation (pAKT) in PC3 cells; type: cell-based; settings: PC3 model, FIG. 7
Description: Cells comprising one or more mutations in PI3Kα, including but not limited to breast cancer cells (e.g., MDA-MB-361, T47D, SKOV-3), and cells comprising one or more mutations in PTEN including but not limited to prostate cancer cells (e.g., PC3), are typically grown in cell growth media such as DMEM supplemented with fetal bovine serum and/or antibiotics, and grown to confluency. Cells are then treated with various concentrations of test compound for about 2 hours and subsequently lysed in cell lysis buffer. Lysates are subjected to SDS-PAGE followed by Western blot analysis to detect downstream signaling markers, including but not limited to pAKT(S473), pAKT(T308), pS6, and p4E-BP1.

[10] = test system: Akt, S6, 4EBP phosphorylation; assay: Western blot of PI3K pathway phosphorylation (Akt, S6, 4EBP); type: cell-based
[11] = test system: 786-O human kidney carcinoma tumors; assay: In vivo efficacy in 786-O xenograft model; design: species or system nude mice; settings: oral, FIG. 6
[12] = test system: breast cancer model; assay: Preclinical breast cancer model (tumor weight / volume); type: in vivo
[13] = test system: MDA-MB-361 (PI3Kα/HER2 carcinoma) tumors; assay: In vivo efficacy in MDA-MB-361 xenograft mouse model of breast cancer; design: species or system nude mice; settings: 70 mg/kg Pan-PI3K inhibitor, 60 mg/kg compound A, FIG. 9 left panel
Description: Blood glucose was monitored periodically following administration of treatment.
Treatment of tumors (MDA-MB-361) with compounds was discontinued on Day 30. Tumors were measured every 2-5 days.

[14] = test system: anti-TNP antibody production; assay: TNP-Ficoll T-cell independent B-cell activation assay; type: in vivo; settings: mice, 7 days; 70 mg/kg GDC0941; 30, 60, 120 mg/kg Compound A; ELISA; FIG. 8
Description: To test the effects of the compounds of the present invention in suppressing T cell independent antibody production, the TNP-Ficoll B-cell activation assay is used as described herein. Compounds of the present invention are dissolved in an appropriate vehicle (e.g. 5% 1-methyl-2-pyrrolidinone, 85% polyethylene glycol 400, 10% Solutor). Compounds are administered orally approximately 1 hr before TNP-Ficoll treatment to 4-10 week old mice. To study the effects of the compounds on B-cell activation, one set of mice are grouped according to the following table:
Four animals in group 1, and eight animals in groups 2 to 7 are euthanized in CO2 2 hours after the last compound administration on day 7. […]
Serum samples are analyzed for anti-TNP antibody titers by ELISA as described herein. […] HRP substrate (200 μl ABTS solution+30% H2O2+10 ml citrate buffer) is added to each well at 100 μl/well, incubated 2-20 minutes in the dark and the amount of anti-TNP IgG3 is determined spectrophotometrically at 405 nm. Similarly, anti-TNP IgM and total anti-TNP Ab are determined using anti-mouse IgM-HRP and anti-mouse Ig-HRP respectively.
Antibody production was measured using ELISA and plotted as as a percentage of control group that were treated with vehicle.

[15] = test system: MZB cells; assay: MZB cells in mouse spleen; type: in vivo; settings: 70 mg/kg Pan-PI3K inhibitor compared to 60 mg/kg Compound A (FIG. 9 right)
[16] = test system: marginal zone B cells; assay: Marginal zone B cells in mouse spleen (FACS); settings: 70 mg/kg Pan-PI3K inhibitor, 60 mg/kg Compound A; spleens harvested 2 hrs after last dose; FIG. 9
[17] = test system: B cell function; assay: B cell function in vivo (TNP-Ficoll immunization, antibody production); design: species or system mouse; settings: mice immunized with TNP-Ficoll; 70 mg/kg GDC0941; 30, 60 or 120 mg/kg Compound A for 7 days (FIG. 8)
[18] = read-out: PI3K γ IC50, in vitro

PI3K β, sequence (P42338 whole entry): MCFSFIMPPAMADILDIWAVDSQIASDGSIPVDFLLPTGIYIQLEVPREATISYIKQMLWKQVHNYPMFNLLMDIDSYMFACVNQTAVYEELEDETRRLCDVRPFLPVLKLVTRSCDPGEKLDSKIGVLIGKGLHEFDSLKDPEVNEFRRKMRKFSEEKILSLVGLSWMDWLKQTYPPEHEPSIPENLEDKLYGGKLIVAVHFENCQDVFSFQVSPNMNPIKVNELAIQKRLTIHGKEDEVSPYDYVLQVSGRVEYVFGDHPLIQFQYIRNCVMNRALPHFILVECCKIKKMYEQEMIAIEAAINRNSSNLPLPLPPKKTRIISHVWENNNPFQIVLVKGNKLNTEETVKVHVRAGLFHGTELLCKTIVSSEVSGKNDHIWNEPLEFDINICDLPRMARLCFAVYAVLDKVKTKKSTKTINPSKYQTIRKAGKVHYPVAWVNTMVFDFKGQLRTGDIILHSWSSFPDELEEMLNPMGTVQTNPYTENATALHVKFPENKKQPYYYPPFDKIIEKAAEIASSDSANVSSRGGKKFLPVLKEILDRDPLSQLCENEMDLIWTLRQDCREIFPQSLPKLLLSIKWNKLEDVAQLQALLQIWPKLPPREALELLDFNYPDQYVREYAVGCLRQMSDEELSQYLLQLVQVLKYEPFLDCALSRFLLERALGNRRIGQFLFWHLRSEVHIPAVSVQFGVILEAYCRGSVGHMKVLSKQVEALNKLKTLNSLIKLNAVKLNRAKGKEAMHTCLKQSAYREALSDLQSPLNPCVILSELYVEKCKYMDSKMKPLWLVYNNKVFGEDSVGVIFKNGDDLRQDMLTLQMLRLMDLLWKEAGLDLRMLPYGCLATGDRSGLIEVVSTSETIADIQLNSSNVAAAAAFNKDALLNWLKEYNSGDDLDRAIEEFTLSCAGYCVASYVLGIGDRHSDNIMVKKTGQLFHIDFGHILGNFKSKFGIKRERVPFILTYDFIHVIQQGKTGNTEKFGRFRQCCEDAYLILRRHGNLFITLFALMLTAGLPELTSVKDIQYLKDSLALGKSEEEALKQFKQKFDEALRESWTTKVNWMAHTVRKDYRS
PI3K β, sequence (P27986 whole entry partner): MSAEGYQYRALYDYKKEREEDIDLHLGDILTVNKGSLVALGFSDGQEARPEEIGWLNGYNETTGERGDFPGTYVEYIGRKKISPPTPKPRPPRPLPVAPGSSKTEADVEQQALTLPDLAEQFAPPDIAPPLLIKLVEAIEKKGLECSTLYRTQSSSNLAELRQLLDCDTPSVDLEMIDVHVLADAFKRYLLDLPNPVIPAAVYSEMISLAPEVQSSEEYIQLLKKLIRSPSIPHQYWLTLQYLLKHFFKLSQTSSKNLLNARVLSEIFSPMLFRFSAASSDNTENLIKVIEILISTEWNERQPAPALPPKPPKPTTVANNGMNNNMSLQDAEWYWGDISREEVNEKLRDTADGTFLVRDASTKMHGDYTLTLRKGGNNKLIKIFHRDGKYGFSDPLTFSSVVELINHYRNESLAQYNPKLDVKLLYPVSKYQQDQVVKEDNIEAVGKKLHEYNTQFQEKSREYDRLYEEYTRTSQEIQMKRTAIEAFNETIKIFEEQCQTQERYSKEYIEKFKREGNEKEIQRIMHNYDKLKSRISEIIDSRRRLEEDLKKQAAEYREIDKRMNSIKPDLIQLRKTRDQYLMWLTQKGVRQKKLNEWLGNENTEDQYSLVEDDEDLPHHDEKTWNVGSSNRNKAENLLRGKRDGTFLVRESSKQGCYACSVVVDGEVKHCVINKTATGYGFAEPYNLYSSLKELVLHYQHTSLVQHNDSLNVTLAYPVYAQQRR
PI3K γ, sequence (P48736 whole entry): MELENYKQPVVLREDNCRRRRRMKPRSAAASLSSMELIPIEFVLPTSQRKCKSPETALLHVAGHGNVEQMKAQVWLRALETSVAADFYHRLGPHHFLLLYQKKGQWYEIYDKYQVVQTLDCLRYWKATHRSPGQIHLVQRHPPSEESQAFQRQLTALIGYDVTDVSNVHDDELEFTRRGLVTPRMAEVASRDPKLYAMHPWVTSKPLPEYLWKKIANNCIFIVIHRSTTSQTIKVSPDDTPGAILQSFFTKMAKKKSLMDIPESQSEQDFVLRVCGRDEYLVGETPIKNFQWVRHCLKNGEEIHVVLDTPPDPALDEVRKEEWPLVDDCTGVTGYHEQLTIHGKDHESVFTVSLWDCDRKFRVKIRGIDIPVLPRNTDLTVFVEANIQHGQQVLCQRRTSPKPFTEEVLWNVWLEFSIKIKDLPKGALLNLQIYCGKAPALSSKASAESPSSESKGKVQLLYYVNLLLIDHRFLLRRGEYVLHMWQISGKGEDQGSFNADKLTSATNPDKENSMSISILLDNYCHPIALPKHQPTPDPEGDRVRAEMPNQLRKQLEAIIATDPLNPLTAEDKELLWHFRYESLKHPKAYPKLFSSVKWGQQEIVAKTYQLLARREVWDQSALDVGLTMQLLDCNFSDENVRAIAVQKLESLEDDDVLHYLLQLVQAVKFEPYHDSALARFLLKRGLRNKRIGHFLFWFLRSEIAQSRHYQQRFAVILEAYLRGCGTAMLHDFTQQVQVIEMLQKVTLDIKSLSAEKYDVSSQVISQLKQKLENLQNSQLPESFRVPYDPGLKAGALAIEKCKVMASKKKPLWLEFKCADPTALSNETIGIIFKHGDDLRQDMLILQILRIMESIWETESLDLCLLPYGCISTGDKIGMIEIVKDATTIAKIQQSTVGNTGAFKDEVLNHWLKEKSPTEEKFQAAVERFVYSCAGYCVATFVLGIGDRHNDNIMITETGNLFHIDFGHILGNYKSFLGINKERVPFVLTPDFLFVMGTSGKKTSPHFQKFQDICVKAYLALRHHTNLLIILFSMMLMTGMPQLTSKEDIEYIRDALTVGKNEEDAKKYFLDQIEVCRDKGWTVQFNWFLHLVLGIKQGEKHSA
PI3K α, sequence (P42336 whole entry): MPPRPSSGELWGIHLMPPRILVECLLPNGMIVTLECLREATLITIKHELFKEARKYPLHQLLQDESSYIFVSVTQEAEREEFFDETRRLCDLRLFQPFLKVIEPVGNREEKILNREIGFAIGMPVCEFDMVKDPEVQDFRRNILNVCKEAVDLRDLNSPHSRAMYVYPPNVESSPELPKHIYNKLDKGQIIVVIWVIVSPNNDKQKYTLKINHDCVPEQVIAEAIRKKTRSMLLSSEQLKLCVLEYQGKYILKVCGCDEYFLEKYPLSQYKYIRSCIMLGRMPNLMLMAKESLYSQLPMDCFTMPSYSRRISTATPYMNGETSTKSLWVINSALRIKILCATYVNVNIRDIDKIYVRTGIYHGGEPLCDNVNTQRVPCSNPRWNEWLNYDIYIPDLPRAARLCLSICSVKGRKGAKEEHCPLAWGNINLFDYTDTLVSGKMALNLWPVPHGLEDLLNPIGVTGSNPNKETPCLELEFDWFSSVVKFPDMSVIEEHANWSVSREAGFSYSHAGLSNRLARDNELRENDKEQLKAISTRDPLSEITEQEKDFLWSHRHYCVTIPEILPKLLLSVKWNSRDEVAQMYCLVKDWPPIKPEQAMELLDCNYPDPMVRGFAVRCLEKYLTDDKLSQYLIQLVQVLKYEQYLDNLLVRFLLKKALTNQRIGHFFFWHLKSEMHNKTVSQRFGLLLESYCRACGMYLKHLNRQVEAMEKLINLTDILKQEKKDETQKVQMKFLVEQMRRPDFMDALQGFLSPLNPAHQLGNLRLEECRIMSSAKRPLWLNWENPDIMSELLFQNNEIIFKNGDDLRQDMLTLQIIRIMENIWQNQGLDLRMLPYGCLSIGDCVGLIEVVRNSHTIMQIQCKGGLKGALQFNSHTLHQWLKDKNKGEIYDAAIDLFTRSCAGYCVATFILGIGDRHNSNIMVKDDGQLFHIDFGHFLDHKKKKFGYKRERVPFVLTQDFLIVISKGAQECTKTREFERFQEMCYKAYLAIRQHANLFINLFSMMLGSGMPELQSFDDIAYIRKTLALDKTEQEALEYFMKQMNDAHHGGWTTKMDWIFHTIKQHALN
PI3K α, sequence (P27986 whole entry partner): as the sequence (P27986 whole entry partner) above
PI3K δ, sequence (O00329 whole entry): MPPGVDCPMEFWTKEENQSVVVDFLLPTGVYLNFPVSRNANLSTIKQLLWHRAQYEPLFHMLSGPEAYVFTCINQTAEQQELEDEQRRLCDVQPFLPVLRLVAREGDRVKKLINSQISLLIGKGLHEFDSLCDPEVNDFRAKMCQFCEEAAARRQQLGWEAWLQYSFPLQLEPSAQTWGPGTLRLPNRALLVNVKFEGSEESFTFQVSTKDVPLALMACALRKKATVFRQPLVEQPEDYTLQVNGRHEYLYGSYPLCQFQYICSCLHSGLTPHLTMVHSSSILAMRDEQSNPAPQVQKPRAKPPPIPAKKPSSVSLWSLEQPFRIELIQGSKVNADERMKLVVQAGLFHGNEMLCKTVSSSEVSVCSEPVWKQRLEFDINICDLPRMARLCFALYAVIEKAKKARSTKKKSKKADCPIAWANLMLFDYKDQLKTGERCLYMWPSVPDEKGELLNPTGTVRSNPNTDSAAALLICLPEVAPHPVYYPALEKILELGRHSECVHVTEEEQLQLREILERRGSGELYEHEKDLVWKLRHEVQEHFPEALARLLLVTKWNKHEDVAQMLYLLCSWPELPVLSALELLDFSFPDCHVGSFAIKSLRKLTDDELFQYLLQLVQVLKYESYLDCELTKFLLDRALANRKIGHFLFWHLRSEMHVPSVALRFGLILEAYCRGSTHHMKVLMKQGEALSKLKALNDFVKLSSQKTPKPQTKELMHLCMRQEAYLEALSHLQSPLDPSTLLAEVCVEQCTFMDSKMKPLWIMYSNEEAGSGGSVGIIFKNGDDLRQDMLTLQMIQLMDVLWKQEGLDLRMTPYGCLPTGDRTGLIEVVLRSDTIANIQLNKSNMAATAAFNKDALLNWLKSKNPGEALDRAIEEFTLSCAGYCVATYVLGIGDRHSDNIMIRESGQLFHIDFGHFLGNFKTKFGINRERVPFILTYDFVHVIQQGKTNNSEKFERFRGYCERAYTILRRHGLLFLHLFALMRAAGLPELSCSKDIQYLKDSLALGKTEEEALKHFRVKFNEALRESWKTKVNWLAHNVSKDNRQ
PI3K δ, sequence (P27986 whole entry partner): as the sequence (P27986 whole entry partner) above

Structure (SMILES): C=Cc1oc(NC(C)=O)nc1/C=C/c1nn(C)c2ncnc(N)c12 [Compound 2]
EC50 ([1]; Table 1): < 1000 nM | IC50 ([2]; Table 1, read-out: mTOR IC50): < 100 nM | IC50 [3]: < 10000 nM | IC50 [4]: > 10000 nM | IC50 [5]: < 1000 nM | IC50 [6]: < 1000 nM

Structure (SMILES): O=C(c1cnc2ccc(-c3cnc(Cl)c(NS(=O)(=O)c4ccccc4)c3)cn12)N1CCOCC1 [Compound 451]
IC50 [1]: < 1000 nM

Structure (SMILES): O=C(c1cnc2ccc(-c3cnc(Cl)c(NS(=O)(=O)c4ccccc4F)c3)cn12)N1CCOCC1 [Compound 452]
IC50 [1]: < 10000 nM

Structure (SMILES): O=C(c1cnc2ccc(-c3cnc(Cl)c(NS(=O)(=O)c4ccc(F)cc4)c3)cn12)N1CCOCC1 [Compound 457]
IC50 [1]: < 1000 nM

Structure (SMILES): O=C(c1cnc2ccc(-c3cnc(Cl)c(NS(=O)(=O)c4cccc(F)c4)c3)cn12)N1CCOCC1 [Compound 458]
IC50 [1]: < 1000 nM

Structure (SMILES): COc1ncc(-c2ccc3ncc(C(=O)N4CCOCC4)n3c2)cc1NS(=O)(=O)c1cccnc1 [Compound 462]
IC50 [1]: < 1000 nM

Structure (SMILES): Nc1nc2cc(-c3ccc4ncc(C(=O)N5CCC(F)(F)C5)n4c3)ccc2o1 [Compound 471]
IC50 [1]: < 10000 nM

Structure (SMILES): CN(C(=O)c1cnc2ccc(-c3ccc4oc(N)nc4c3)cn12)C1CCOCC1 [Compound 472]
IC50 [1]: < 10000 nM

Structure (SMILES): Nc1nc2cc(-c3ccc4ncc(C(=O)N5CC(F)(F)C5)n4c3)ccc2o1 [Compound 473]
IC50 [1]: < 1000 nM

Structure (SMILES): Nc1nc2cc(-c3ccc4ncc(C(=O)N5C6CCC5COC6)n4c3)ccc2o1 [Compound 480]
IC50 [1]: < 1000 nM

Structure (SMILES): C[C@H]1COCCN1C(=O)c1cnc2ccc(-c3ccc4oc(N)nc4c3)cn12 [Compound 483]
IC50 [1]: < 10000 nM

Structure (SMILES): COc1ncc(-c2ccc3ncn(C4CCN(C(C)C)CC4)c(=O)c3c2)cc1NS(=O)(=O)c1ccccc1 [Compound 522]
IC50 [1]: < 1000 nM

Structure (SMILES): CC(C)N1CCC(n2cnc3ccc(-c4cnc(Cl)c(NS(C)(=O)=O)c4)cc3c2=O)CC1 [Compound 523]
IC50 [1]: < 10000 nM

Structure (SMILES): COc1ncc(-c2ccc3ncn(C4CCN(C)CC4)c(=O)c3c2)cc1NS(=O)(=O)c1ccccc1 [Compound 524]
IC50 [1]: < 1000 nM

Structure (SMILES): CN1CCC(n2cnc3ccc(-c4cnc(Cl)c(NS(C)(=O)=O)c4)cc3c2=O)CC1 [Compound 526]
IC50 [1]: < 10000 nM

Structure (SMILES): CN1CC2CN(c3cnc4ccc(-c5ccc6oc(N)nc6c5)nc4n3)CC2C1 (stereo not drawn) [Compound 629]
IC50 ([2]; Table 4, read-out: mTORC IC50): > 10000 nM | IC50 ([3]; read-out: PI3K α IC50, Table 4): < 100 nM | IC50 ([4]; read-out: PI3K β IC50, Table 4): < 1000 nM | IC50 ([5]; read-out: PI3K γ IC50, Table 4): < 10000 nM | IC50 ([6]; read-out: PI3K δ IC50, Table 4): < 1000 nM

Structure (SMILES): CN1CC2CN(c3cnc4ccc(-c5ccc6oc(N)nc6c5)nc4c3)CC2C1 (stereo not drawn) [Compound 630]
IC50 ([2]; Table 4, read-out: mTORC IC50): > 10000 nM | IC50 ([3]; read-out: PI3K α IC50, Table 4): < 100 nM | IC50 ([4]; read-out: PI3K β IC50, Table 4): < 1000 nM | IC50 ([5]; read-out: PI3K γ IC50, Table 4): < 1000 nM | IC50 ([6]; read-out: PI3K δ IC50, Table 4): < 1000 nM

Structure (SMILES): CC(C)n1nc(-c2ccc3oc(N)nc3c2)c2c(N)ncnc21 [Compound B]
mTORC1-dependent NRDG1 phosphorylation [7]: sensitivity | effects on mTORC1 and mTORC2 (pNDRG1) [8]: differential effects on mTORC1 and mTORC2 | inhibition of Akt phosphorylation, serine 473 versus threonine 308 [9]: differential inhibition of Akt phosphorylation at serine 473 over threonine 308 | inhibition of Akt, S6, and 4EBP phosphorylation ([10]; PTEN mutant cells, western blot (FIG. 6B)): selective inhibition | downregulating Akt and S6 phosphorylation ([10]; combined treatment with Compound A and Compound B, western blot (FIG. 3)): synergistic effect | inhibition of Akt phosphorylation at serine 473 over threonine 308 ([10]; western blot (FIG. 7)): differential inhibition | inhibition of kinase activity (downstream markers) and tumor growth [11]: effective at inhibiting kinase activity | tumor weight in a preclinical breast cancer model ([12]; combined treatment with Compound A and Compound B (FIG. 2)): synergistic effect

Structure (SMILES): CS(=O)(=O)N1CCN(Cc2cc3nc(-c4cccc5[nH]ncc45)nc(N4CCOCC4)c3s2)CC1 [Pan-PI3K inhibitor, GDC0941, reference compound]
tumor weight [13]: reduction in tumor weight | B cell function in vivo (antibody production after TNP-Ficoll) [14]: blocks B cell function in vivo | presence of MZB cells in mouse spleen [15]: reduced presence | presence (localization/viability) of marginal zone B cells in spleen [16]: reduced presence of MZB cells | B cell function in vivo (antibody production) [17]: blocks | tumor weight of a breast cancer model ([12]; 70 mg/kg Pan-PI3K inhibitor, 60 mg/kg compound A (FIG. 9 left)): reduction in tumor weight

The next lines start with the values.

IC50 [1]: < 10000 nM
Structure (SMILES): CO[C@@H]1CCN(C(=O)c2cnc3ccc(-c4ccc5oc(N)nc5c4)cn23)C1 [Compound 464]

IC50 [1]: < 1000 nM
Structure (SMILES): COC1CN(C(=O)c2cnc3ccc(-c4ccc5oc(N)nc5c4)cn23)C1 [Compound 467]

IC50 [1]: < 10000 nM
Structure (SMILES): Nc1nc2cc(-c3ccc4ncc(C(=O)N5CC(N6CC[C@H](O)C6)C5)n4c3)ccc2o1 [Compound 469]

IC50 [1]: < 10000 nM | IC50 ([6]; read-out: PI3K δ IC50, in vitro): < 10000 nM
Structure (SMILES): Nc1nc2cc(-c3ccc4ncc(C(=O)N5CC(N6CC[C@@H](O)C6)C5)n4c3)ccc2o1 [Compound 470]

IC50 [1]: < 1000 nM
Structure (SMILES): Nc1nc2cc(-c3ccc4ncc(C(=O)N5CC[C@H](n6cccn6)C5)n4c3)ccc2o1 [Compound 478]

IC50 [1]: < 1000 nM
Structure (SMILES): C[C@@H]1CN(C2CN(C(=O)c3cnc4ccc(-c5ccc6oc(N)nc6c5)cn34)C2)CCN1C [Compound 508]

IC50 [1]: < 10000 nM
Structure (SMILES): C[C@H]1CN(C2CN(C(=O)c3cnc4ccc(-c5ccc6oc(N)nc6c5)cn34)C2)CCN1 [Compound 510]

IC50 [1]: < 10000 nM | IC50 [5, 18]: < 10000 nM
Structure (SMILES): C[C@@H]1CN(C2CN(C(=O)c3cnc4ccc(-c5ccc6oc(N)nc6c5)cn34)C2)CCN1 [Compound 511]

IC50 [1]: < 1000 nM | IC50 [5, 18]: < 10000 nM
Structure (SMILES): C[C@H]1CN(C2CN(C(=O)c3cnc4ccc(-c5ccc6oc(N)nc6c5)cn34)C2)CCN1C [Compound 512]

IC50 [1]: < 1000 nM
Structure (SMILES): CC1(C)CN(C2CN(C(=O)c3cnc4ccc(-c5ccc6oc(N)nc6c5)cn34)C2)CCN1 [Compound 515]
